Columns and labels:
Format in all cases: functional, cell-based
[1] = tested on: SKM-1; assay: SANGER: Inhibition of human SKM-1 cell growth in a cell viability assay.
[2] = tested on: NCI-H2107; assay: SANGER: Inhibition of human NCI-H2107 cell growth in a cell viability assay.
[3] = tested on: KP-N-RT-BM-1; assay: SANGER: Inhibition of human KP-N-RT-BM-1 cell growth in a cell viability assay.
[4] = tested on: NCI-H128; assay: SANGER: Inhibition of human NCI-H128 cell growth in a cell viability assay.
[5] = tested on: EW-12; assay: SANGER: Inhibition of human EW-12 cell growth in a cell viability assay.
[6] = tested on: CP67-MEL; assay: SANGER: Inhibition of human CP67-MEL cell growth in a cell viability assay.
[7] = tested on: RL95-2; assay: cells; conditions: Homo sapiens;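 note: RL95-2 growth inhibition determined through a cell viability readout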
Description: SANGER: Inhibition of human RL95-2 cell growth in a cell viability assay.

[8] = tested on: D-423MG; assay: cells; conditions: Homo sapiens
Description: SANGER: Inhibition of human D-423MG cell growth in a cell viability assay.

[9] = tested on: BT-549; assay: cells; conditions: Homo sapiens
Description: SANGER: Inhibition of human BT-549 cell growth in a cell viability assay.

[10] = tested on: NCI-H2029; assay: cells; conditions: Homo sapiens;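 note: Read-out is a viability assay on the cultured cells, and IC50 is the concentration that suppresses cell growth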
Description: SANGER: Inhibition of human NCI-H2029 cell growth in a cell viability assay.

[11] = tested on: H9; assay: cells; conditions: Homo sapiens
Description: SANGER: Inhibition of human H9 cell growth in a cell viability assay.

[12] = tested on: LU-135; assay: cells; conditions: Homo sapiens
Description: SANGER: Inhibition of human LU-135 cell growth in a cell viability assay.

[13] = tested on: ZR-75-30; assay: cells; conditions: Homo sapiens;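 note: growth inhibition of ZR-75-30 cells, measured with a cell viability readout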
Description: SANGER: Inhibition of human ZR-75-30 cell growth in a cell viability assay.

[14] = tested on: NCI-H1048; assay: cells; conditions: Homo sapiens;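 note: growth inhibition of human NCI-H1048 cells, read out with a cell viability assay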
Description: SANGER: Inhibition of human NCI-H1048 cell growth in a cell viability assay.

[15] = tested on: BALL-1; assay: cells; conditions: Homo sapiens;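 note: growth inhibition of BALL-1 cells, read out with a cell viability assay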
Description: SANGER: Inhibition of human BALL-1 cell growth in a cell viability assay.

[16] = tested on: NCI-H2291; assay: cells; conditions: Homo sapiens
Description: SANGER: Inhibition of human NCI-H2291 cell growth in a cell viability assay.

[17] = tested on: NCI-H1666; assay: cells; conditions: Homo sapiens;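 note: growth inhibition of the cell line, read out with a cell viability assay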
Description: SANGER: Inhibition of human NCI-H1666 cell growth in a cell viability assay.

[18] = tested on: KNS-62; assay: cells; conditions: Homo sapiens;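 note: inhibition of cell growth, read out with a cell viability assay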
Description: SANGER: Inhibition of human KNS-62 cell growth in a cell viability assay.

[19] = tested on: SW 1116; assay: cells; conditions: Homo sapiens;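 note: growth inhibition of SW1116 cells, read out with a cell viability assay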
Description: SANGER: Inhibition of human SW1116 cell growth in a cell viability assay.

[20] = tested on: TGBC11TKB; assay: cells; conditions: Homo sapiens;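 note: growth inhibition of human TGBC11TKB cells, measured by a cell viability assay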
Description: SANGER: Inhibition of human TGBC11TKB cell growth in a cell viability assay.

[21] = tested on: CFPAC-1; assay: cells; conditions: Homo sapiens;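 note: cell viability readout used to gauge suppression of CFPAC-1 cell proliferation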
Description: SANGER: Inhibition of human CFPAC-1 cell growth in a cell viability assay.

[22] = tested on: SW900; assay: cells; conditions: Homo sapiens;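 note: IC50 is the concentration that inhibits SW900 cell growth, measured by a cell viability assay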
Description: SANGER: Inhibition of human SW900 cell growth in a cell viability assay.

[23] = tested on: H-EMC-SS; assay: cells; conditions: Homo sapiens
Description: SANGER: Inhibition of human H-EMC-SS cell growth in a cell viability assay.

[24] = tested on: RH-18; assay: cells; conditions: Homo sapiens, Rh18;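 note: growth inhibition of human RH-18 cells, read out with a cell viability assay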
Description: SANGER: Inhibition of human RH-18 cell growth in a cell viability assay.

[25] = tested on: OC-314; assay: cells; conditions: Homo sapiens
Description: SANGER: Inhibition of human OC-314 cell growth in a cell viability assay.

[26] = tested on: A549; assay: cells; conditions: Homo sapiens;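 note: growth inhibition of A549 cells, read out with a cell viability assay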
Description: SANGER: Inhibition of human A549 cell growth in a cell viability assay.

[27] = tested on: EPLC-272H; assay: cells; conditions: Homo sapiens
Description: SANGER: Inhibition of human EPLC-272H cell growth in a cell viability assay.

[28] = tested on: TI-73; assay: cells; conditions: Homo sapiens;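 note: cell viability assay measuring how much compounds suppress growth of the cultured cell line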
Description: SANGER: Inhibition of human TI-73 cell growth in a cell viability assay.

[29] = tested on: RT-4; assay: SANGER: Inhibition of human RT4 cell growth in a cell viability assay.
[30] = tested on: NCI-H838; assay: cells; conditions: Homo sapiens;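 note: growth inhibition of human NCI-H838 cells, read out by a cell viability assay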
Description: SANGER: Inhibition of human NCI-H838 cell growth in a cell viability assay.

[31] = tested on: EFE-184; assay: cells; conditions: Homo sapiens
Description: SANGER: Inhibition of human EFE-184 cell growth in a cell viability assay.

[32] = tested on: IPC-298; assay: SANGER: Inhibition of human IPC-298 cell growth in a cell viability assay.
[33] = tested on: PLC-PRF-5; assay: cells; conditions: Homo sapiens;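 note: growth inhibition of human PLC-PRF-5 cells, read out with a viability assay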
Description: SANGER: Inhibition of human PLC-PRF-5 cell growth in a cell viability assay.

[34] = tested on: Caov-3 cell line; assay: cells; conditions: Homo sapiens;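 note: cell growth inhibition read out by a viability assay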
Description: SANGER: Inhibition of human Caov-3 cell growth in a cell viability assay.

[35] = tested on: COLO 205; assay: cells; conditions: Homo sapiens
Description: SANGER: Inhibition of human COLO-205 cell growth in a cell viability assay.

[36] = tested on: C-4-II; assay: SANGER: Inhibition of human C-4-II cell growth in a cell viability assay.
[37] = tested on: NCI-H1618; assay: cells; conditions: Homo sapiens;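 note: growth inhibition of human NCI-H1618 cells, measured by a cell viability assay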
Description: SANGER: Inhibition of human NCI-H1618 cell growth in a cell viability assay.

[38] = tested on: Calu-1; assay: SANGER: Inhibition of human Calu-1 cell growth in a cell viability assay.
[39] = tested on: CCF-STTG1; assay: cells; conditions: Homo sapiens;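 note: growth inhibition of human CCF-STTG1 cells, determined with a cell viability read-out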
Description: SANGER: Inhibition of human CCF-STTG1 cell growth in a cell viability assay.

[40] = tested on: SNG-M; assay: cells; conditions: Homo sapiens
Description: SANGER: Inhibition of human SNG-M cell growth in a cell viability assay.

[41] = tested on: HCC1143; assay: cells; conditions: Homo sapiens;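 note: growth inhibition of human HCC1143 cells, read out with a cell viability assay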
Description: SANGER: Inhibition of human HCC1143 cell growth in a cell viability assay.

[42] = tested on: NCI-H1734; assay: cells; conditions: Homo sapiens;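 note: growth inhibition of human NCI-H1734 cells, read out with a cell viability assay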
Description: SANGER: Inhibition of human NCI-H1734 cell growth in a cell viability assay.

[43] = tested on: MES-SA; assay: cells; conditions: Homo sapiens;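 note: growth inhibition of human MES-SA cells, read out with a cell viability assay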
Description: SANGER: Inhibition of human MES-SA cell growth in a cell viability assay.

[44] = tested on: SK-CO-1; assay: cells; conditions: Homo sapiens;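 note: growth inhibition of SK-CO-1 cells, determined by a viability readout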
Description: SANGER: Inhibition of human SK-CO-1 cell growth in a cell viability assay.

[45] = tested on: SNU-475; assay: cells; conditions: Homo sapiens
Description: SANGER: Inhibition of human SNU-475 cell growth in a cell viability assay.

[46] = tested on: MDA-MB-468; assay: cells; conditions: Homo sapiens
Description: SANGER: Inhibition of human MDA-MB-468 cell growth in a cell viability assay.

[47] = tested on: MFE-296; assay: SANGER: Inhibition of human MFE-296 cell growth in a cell viability assay.
[48] = tested on: DMS-53; assay: cells; conditions: Homo sapiens;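 note: cell viability assay measuring growth inhibition of human DMS-53 cells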
Description: SANGER: Inhibition of human DMS-53 cell growth in a cell viability assay.

[49] = tested on: CHP-134; assay: SANGER: Inhibition of human CHP-134 cell growth in a cell viability assay.

| SMILES | IC50 [8] | IC50 [9] | IC50 [10] | IC50 [12] | IC50 [13] | IC50 [14] | IC50 [15] | IC50 [16] | IC50 [17] | IC50 [18] | IC50 [19] | IC50 [20] | IC50 [21] | IC50 [22] | IC50 [23] | IC50 [24] | IC50 [25] | IC50 [26] | IC50 [27] | IC50 [28] | also measured |
| --- | --- | --- | --- | --- | --- | --- | --- | --- | --- | --- | --- | --- | --- | --- | --- | --- | --- | --- | --- | --- | --- |
| CCNc1cc(N[C@H]2CC[C@@H](O)CC2)nc(Nc2ccc3c(ccn3Cc3ccccc3)c2)n1 |  |  |  |  |  |  |  |  |  |  |  |  |  |  |  |  |  |  |  |  | IC50 [1]: > 5.12 µM; IC50 [2]: > 5120 nM; IC50 [3]: > 5120 nM; IC50 [4]: > 5.12 µM; IC50 [5]: > 5.12 µM; IC50 [6]: > 5120 nM; IC50 [7]: 3200 nM |
| C[C@]1(c2nc3c(C(N)=O)cccc3[nH]2)CCCN1 [VELIPARIB] | > 5000 nM | > 5000 nM | > 5000 nM | > 5000 nM | > 5000 nM | > 5000 nM | > 5000 nM | > 5000 nM | > 5000 nM | > 5000 nM | > 5000 nM | > 5000 nM | > 5000 nM | > 5000 nM | > 5000 nM | > 5000 nM | > 5000 nM | > 5000 nM | > 5000 nM | > 5000 nM | IC50 [11]: > 5000 nM |
| CO[C@@]12[C@H](COC(N)=O)C3=C(C(=O)C(C)=C(N)C3=O)N1C[C@@H]1N[C@@H]12 [MITOMYCIN] |  |  |  |  |  |  |  |  |  |  |  |  |  |  |  |  |  |  |  |  | IC50 [29]: 1700 nM; IC50 [30]: 1230 nM; IC50 [31]: 1.38 µM; IC50 [32]: 1.23 µM; IC50 [33]: 4.19 µM; IC50 [34]: 162 nM; IC50 [35]: < 0.0625 µM; IC50 [36]: 104 nM; IC50 [37]: 118 nM; IC50 [38]: 4.81 µM; IC50 [39]: 0.216 µM; IC50 [40]: 134 nM; IC50 [41]: 1070 nM; IC50 [42]: 137 nM; IC50 [43]: 145 nM; IC50 [44]: 202 nM; IC50 [45]: 813 nM; IC50 [46]: 345 nM; IC50 [47]: 286 nM; IC50 [48]: 809 nM |
| COc1cc(Nc2c(C#N)cnc3cc(OCCCN4CCN(C)CC4)c(OC)cc23)c(Cl)cc1Cl [BOSUTINIB] | > 2000 nM | > 2000 nM | > 2000 nM | > 2000 nM | > 2000 nM | > 2000 nM | > 2000 nM | > 2000 nM | > 2000 nM | > 2000 nM | > 2000 nM | > 2000 nM | > 2000 nM | > 2000 nM | > 2000 nM | > 2000 nM | 870 nM | > 2000 nM | > 2000 nM | 1020 nM | IC50 [11]: 435 nM |
| N#C/C(=C1/Nc2ccccc2S1)c1ccnc(NCCc2cccnc2)n1 |  |  |  |  |  |  |  |  |  |  |  |  |  |  |  |  |  |  |  |  | IC50 [29]: > 8000 nM; IC50 [30]: > 8000 nM; IC50 [31]: 4.7 µM; IC50 [32]: 7.4 µM; IC50 [33]: > 8 µM; IC50 [34]: > 8000 nM; IC50 [35]: > 8 µM; IC50 [36]: > 8000 nM; IC50 [37]: > 8000 nM; IC50 [38]: > 8 µM; IC50 [39]: 6.41 µM; IC50 [40]: 980 nM; IC50 [41]: 4210 nM; IC50 [42]: > 8000 nM; IC50 [43]: 4670 nM; IC50 [44]: > 8000 nM; IC50 [45]: > 8000 nM; IC50 [46]: > 8000 nM; IC50 [47]: 1550 nM; IC50 [48]: > 8000 nM |
| Cn1c(=O)n(-c2ccc(C(C)(C)C#N)cc2)c2c3cc(-c4cnc5ccccc5c4)ccc3ncc21 [DACTOLISIB] | 52.1 nM | 119 nM | 1420 nM | > 2000 nM | > 2000 nM | 86.3 nM | > 2000 nM | 598 nM | 9.71 nM | 45.4 nM | > 2000 nM | 410 nM | 151 nM | 155 nM | 147 nM | 395 nM | 38.7 nM | 10.1 nM | 44.4 nM | 25.3 nM | IC50 [49]: 140 nM |
| O=c1cc(N2CCOCC2)oc2c(-c3cccc4c3sc3ccccc34)cccc12 | 1690 nM | > 2000 nM | > 2000 nM | > 2000 nM | > 2000 nM | > 2000 nM | > 2000 nM | > 2000 nM | > 2000 nM | > 2000 nM | > 2000 nM | > 2000 nM | > 2000 nM | > 2000 nM | > 2000 nM | > 2000 nM | > 2000 nM | > 2000 nM | > 2000 nM | > 2000 nM | IC50 [49]: > 2000 nM |
| Cc1n[nH]c2ccc(-c3cncc(OC[C@@H](N)Cc4c[nH]c5ccccc45)c3)cc12 [A-443654] |  |  |  |  |  |  |  |  |  |  |  |  |  |  |  |  |  |  |  |  | IC50 [1]: > 1.02 µM; IC50 [2]: 958 nM; IC50 [3]: 911 nM; IC50 [4]: > 1.02 µM; IC50 [5]: > 1.02 µM; IC50 [6]: 313 nM; IC50 [7]: 22.8 nM |

From ChEMBL document CHEMBL1201861, “Genomics of Drug Sensitity in Cancer screening data, Wellcome Trust Sanger Institute”
